3 compounds from patent publication US10064858B2, “Methods and compositions for treating bacterial infections with iron chelators” (THE UNITED STATES OF AMERICA, AS REPRESENTED BY THE …, priority 2011, dated 2018) can be followed below.

The structures appear in SMILES notation. “Also recorded” adds a separate entry of the source.

In one experiment the test system is E. coli O157:H7. Kind of experiment: Time-kill assay, Apo6619 with Rifampin. Conditions: 1.5×MIC Apo6619 in combination with 0.75×MIC Rifampin; 0, 5 and 24 hours. In kind it is cell-based. Here is the method:
Reductions in colony forming units (CFU)/mL were determined over time (time-kill assay) after exposure to VK28 and deferiprone (DFP), the two iron chelators that performed best in MIC assays when compared to controls. To better represent the iron content found in the human body, MIC and time-kill assays were also determined in minimal media and tissue culture media. Time-Kill assays were performed as previously described in G. P. Neupane et al., “In vitro time-kill activities of ciprofloxacin alone and in combination with the iron chelator deferasirox against Vibrio vulnificus,” European Journal of Clinical Microbiology and Infectious Diseases, 407-410 (2010); and R. L. White, et al., “Comparison of Three Different In Vitro Methods of Detecting synergy: Time-Kill, Checkerboard, and E test,” Journal of Antimicrobial Agents and Chemotherapy, 1914-1918 (1996). Initial inocula, for example 1×10^6 CFU/mL or 1×10^7 CFU/mL were challenged with iron chelator with and/or without an antibiotic. […] Time-kill results were analyzed by determining the change in log 10 numbers of CFU/ml at 0, 6, and 24 h, compared to counts at 0 h. […]
In this example, time-kill assays were performed as described in Example 9 using Apo6619 as the iron chelator in combination with Rifampin against E. coli O157:H7. […] Time-kill results were analyzed by determining the change in log 10 numbers of CFU/mL at 0, 5 and 24 hours.

The test system of the next experiment is KP ndm. Kind of experiment: Checkerboard assay, chelator with antibiotic (FIC). In kind it is cell-based, K. pneumonia. An excerpt: Drug interactions were initially evaluated with the “checkerboard” microdilution design, which provided a matrix of all drug combinations assayed in terms of fractions of the previously determined MIC. The checkerboard microdilution design is described in R. J. Tallarida, “Drug Synergism: Its Detection and Applications,” Journal of Pharmacology and Experimental Therapeutics, 865-872 (2001); and in R. L. White, et al., (1996), supra. FIGS. 39A and 39B show the wellplates having different concentrations of iron chelator and antibiotic, as labeled along the x-axis and y-axis.
The checkerboard assay was used to asses other combinations of iron chelators and antibiotics. The fractional inhibitory concentration index (FIC), which was calculated as follows: FIC=(MIC A in combination/MIC A)+(MIC B in combination/MIC B). Interaction was defined as synergistic if the FIC was <1.0, preferably <0.5, no interaction if the FIC was >1.0 and <4.0, and antagonistic if the FIC was >4.0.
The assay was run against the multi-drug resistant bacterial species AB 19606, AB 17978, KP ndm, PA PAO1, PA 27853, EC 35718, and EC 43888. Blank spaces indicate concentrations not tested. […] Against the species PA PAO1 and PA 27853, all the antibiotics except for Ami.

The test system of a further experiment is MRSA ATCC SA43300. Kind of experiment: Time-kill assay in CAMHB. Format: cell-based, S. aureus. Conditions: 1×MIC and 2×MIC VK28. The method, then:
Reductions in colony forming units (CFU)/mL were determined over time (time-kill assay) after exposure to VK28 and deferiprone (DFP), the two iron chelators that performed best in MIC assays when compared to controls. To better represent the iron content found in the human body, MIC and time-kill assays were also determined in minimal media and tissue culture media. Time-Kill assays were performed as previously described in G. P. Neupane et al., “In vitro time-kill activities of ciprofloxacin alone and in combination with the iron chelator deferasirox against Vibrio vulnificus,” European Journal of Clinical Microbiology and Infectious Diseases, 407-410 (2010); and R. L. White, et al., “Comparison of Three Different In Vitro Methods of Detecting synergy: Time-Kill, Checkerboard, and E test,” Journal of Antimicrobial Agents and Chemotherapy, 1914-1918 (1996). Initial inocula, for example 1×10^6 CFU/mL or 1×10^7 CFU/mL were challenged with iron chelator with and/or without an antibiotic. Cells were allowed to grow in CAMHB at 37° C. for 24 hours. Time-kill results were analyzed by determining the change in log 10 numbers of CFU/ml at 0, 6, and 24 h, compared to counts at 0 h. […]

The next experiment deals with AB5075 (MRSN959). Kind of experiment: Infected punch biopsy wound in mice, topical treatment. In kind it is in vivo. An excerpt:
This example provides an in vivo evaluation of the effectiveness of VK28 in treating a bacterial infection. Mice were wounded with 6 mm punch biopsy and infected with AB5075 (MRSN959) and treated daily for 14 days with poloxamer F-127 gel alone as a control composition (FIG. 11A) or F-127 gel containing 5% VK28 (as a topical composition containing an iron chelator).

A further experiment concerns Klebsiella pneumonia. Kind of experiment: Growth (OD600) with VK28 in M9 media with magnesium / calcium. Format: cell-based. As to conditions: 50-200 μg/ml VK28, 24 hours. Here is the method: Klebsiella pneumonia was grown in M9 media containing 2 mM MgSO4 for 24 hours in the presence of 0 μg/ml, 50 μg/ml, 100 μg/ml, or 200 μg/ml VK28. The OD600 was measured at 0, 4, and 24 hour and the results are shown in the time-kill curves of FIG. 16.
Klebsiella pneumonia was grown similar to as described in Example 19 in M9 media containing 2 mM MgSO4 and 1.34 mM CaCl2 for 24 hours in the presence of 0 μg/ml, 50 μg/ml, 100 μg/ml, or 200 μg/ml VK28. The OD600 was measured at 24 hour and the results are shown in the bar graph of FIG. 17.

For a further experiment, the system named is Escherichia coli. The description is as above. Format: cell-based. As to conditions: 24 hours. The method, then:
Escherichia coli was grown similar to as described in Example 19 in M9 media containing 2 mM MgSO4 for 24 hours in the presence of 0 μg/ml, 50 μg/ml, 100 μg/ml, or 200 μg/ml VK28. The OD600 was measured at 0, 4, and 24 hour and the results are shown in the time-kill curves of FIG. 18.
In this example, strains of MR Staphylococcus aureus (MRSA), Acinetobacter baumannii (Acinetobacter), Escherichia coli (E. coli), and Pseudomonas aeruginosa (Pseudomonas) were grown in M9 media in the presence of 2 mM MgSO4 and 1.35 mM CaCl2 for 24 hours in the presence or absence of 0 μg/ml, 50 μg/ml, 100 μg/ml, or 200 μg/ml of VK28. The OD600 was measured at 24 hour and the results are shown in the bar graph of FIG. 21.

The test system of another experiment is AB5711. Kind of experiment: Effect of VK28 on the activity of antibiotics (OD600). Format: cell-based, A. baumannii. Conditions: 50 μM VK28; 30 antibiotics. Here is the method:
In some aspects of the present invention, one or more iron chelators (for example Compound 4, VK28, or its analogs or derivatives, or Apo6619) may be used in a composition or method for treating a bacterial infection with one or more antibiotics. […] Methods and compositions comprising one or more iron chelators with one or more of each of the foregoing antibiotics are hereby disclosed.
In this example, culture of AB5711 was grown overnight in LB media at 37° C. and diluted 1:100 into Media A. Cells were allowed to grow for 4 hours at 37 in 96-well plates and were then treated with antibiotics with or without 50 μM VK28. Cells were then allowed to shake for an additional 20 hours, and OD600 measurements were taken.

Turning to `CNC(=O)c1c(O)c(=O)cc(C)n1C1CC1` [Apo6619, 1-cyclopropyl-3-hydroxy-6-methyl-4-oxo-1,4-dihydro-pyridine-2-carboxylic acid methylamide], in the experiment with E. coli O157:H7, the time kill curves entry was “combinational effect”.
For the compound `Cc1c(O)c(=O)ccn1C` [ApoL1, 3-hydroxy-1,2-dimethyl-4(1H)-pyridone], the results for the FIC with KP ndm (in combination with Colisitin) and in the experiment with KP ndm (in combination with Rifampin) were 1.25 and 0.75, respectively.
As to `OCCN1CCN(Cc2ccc(O)c3ncccc23)CC1` [VK28, 5-(4-(2-hydroxyethyl)piperazin-1-ylmethyl)-8-hydroxyquinoline], the time-kill effect result in the experiment on MRSA ATCC SA43300 was “bacteriostatic (considered bacteriostatic if the inoculum's size was reduced by 0 to <3 log 10 CFU/ml)”. Also, the wound healing entry with AB5075 (MRSN959) (F-127 gel containing 5% VK28, topical, daily for 14 days, vs gel alone (FIG. 11)) is “Healing scab and reduced wound size; also recorded: the wound treated with the control composition did not heal as well as the wound treated with the iron chelator composition”; with AB5075 (MRSN959) (composition containing 1% VK28, other mice), “not particularly efficacious”; in the experiment on AB5075 (MRSN959) (composition containing 5% VK28, other mice), “efficacious in promoting wound healing”. Moreover, the “inhibition of growth (OD600)” value with Klebsiella pneumonia (M9 with 2 mM MgSO4) was “inhibition of growth is not reduced in the presence of magnesium”; in the experiment on Klebsiella pneumonia (M9 with 2 mM MgSO4 and 1.34 mM CaCl2) it was “inhibition of growth is not reduced in the presence of magnesium and calcium”; in the experiment with Escherichia coli (M9 with 2 mM MgSO4, 50-200 μg/ml VK28), “inhibition of growth of E. coli is not reduced in the presence of magnesium and calcium”; in the experiment with Escherichia coli (M9 with 2 mM MgSO4 and 1.35 mM CaCl2), “inhibition of growth of a number of strains of bacteria is not reduced in the presence of magnesium and calcium”. Besides, the “inhibition of the activity of antibiotics by VK28” value in the experiment with AB5711 is reported as “only inhibited the activity of one antibiotic, namely thiamphenicol; also recorded: not shown to inhibit the activity of the antibiotics with the exception of Thiaphenicol”.
